pIC50: −log10 of the molar value.
target: BTK enzyme (recombinant full-length BTK, hBTK) (Homo sapiens (Human), UniProt Q06187); assay: Btk enzyme activity assay, LANCE TR-FRET; format: biochemical; conditions: 50 pM hBTK, 2 μM biotin-A5-peptide, 25 μM ATP, 60 minute compound & enzyme incubation, compound range 1 μM to 0.017 nM, read-out: BTK binding IC50
Method: Btk Enzyme Activity Assay Methods
BTK enzymatic activity was determined with the LANCE (Lanthanide Chelate Excite) TR-FRET (Time-resolved fluorescence resonance energy transfer) assay. In this assay, the potency (IC50) of each compound was determined from an eleven point (1:3 serial dilution; final compound concentration range in assay from 1 μM to 0.017 nM) titration curve using the following outlined procedure. To each well of a black non-binding surface Corning 384-well microplate (Corning Catalog #3820), 5 nL of compound (2000 fold dilution in final assay volume of 10 μL) was dispensed, followed by the addition of 7.5 μL of 1× kinase buffer (50 mM Hepes 7.5, 10 mM MgCl2, 0.01% Brij-35, 1 mM EGTA, 0.05% BSA & 1 mM DTT) containing 5.09 pg/μL (66.67 pM) of BTK enzyme (recombinant protein from baculovirus-transfected Sf9 cells: full-length BTK, 6HIS-tag cleaved). Following a 60 minute compound & enzyme incubation, each reaction was initiated by the addition of 2.5 μL 1× kinase buffer containing 8 μM biotinylated “A5” peptide (Biotin-EQEDEPEGDYFEWLE-NH2) (SEQ.ID.NO.: 1), and 100 μM ATP. The final reaction in each well of 10 μL consists of 50 pM hBTK, 2 μM biotin-A5-peptide, and 25 μM ATP. Phosphorylation reactions were allowed to proceed for 120 minutes. Reactions were immediately quenched by the addition of 20 uL of 1× quench buffer (15 mM EDTA, 25 mM Hepes 7.3, and 0.1% Triton X-100) containing detection reagents (0.626 nM of LANCE-Eu-W1024-anti-phosphoTyrosine antibody, PerkinElmer and 86.8 nM of Streptavidin-conjugated Dylight 650, Dyomics/ThermoFisher Scientific). After 60 minutes incubation with detection reagents, reaction plates were read on a PerkinElmer EnVision plate reader using standard TR-FRET protocol. Briefly, excitation of donor molecules (Eu-chelate:anti-phospho-antibody) with a laser light source at 337 nm produces energy that can be transferred to Dylight-650 acceptor molecules if this donor:acceptor pair is within close proximity. Fluorescence intensity at both 665 nm (acceptor) and 615 nm (donor) are measured and a TR-FRET ratio calculated for each well (acceptor intensity/donor intensity). IC50 values were determined by 4 parameter robust fit of TR-FRET ratio values vs. (Log10) compound concentrations.

Chain of BTK enzyme (recombinant full-length BTK, hBTK) (Q06187 whole entry): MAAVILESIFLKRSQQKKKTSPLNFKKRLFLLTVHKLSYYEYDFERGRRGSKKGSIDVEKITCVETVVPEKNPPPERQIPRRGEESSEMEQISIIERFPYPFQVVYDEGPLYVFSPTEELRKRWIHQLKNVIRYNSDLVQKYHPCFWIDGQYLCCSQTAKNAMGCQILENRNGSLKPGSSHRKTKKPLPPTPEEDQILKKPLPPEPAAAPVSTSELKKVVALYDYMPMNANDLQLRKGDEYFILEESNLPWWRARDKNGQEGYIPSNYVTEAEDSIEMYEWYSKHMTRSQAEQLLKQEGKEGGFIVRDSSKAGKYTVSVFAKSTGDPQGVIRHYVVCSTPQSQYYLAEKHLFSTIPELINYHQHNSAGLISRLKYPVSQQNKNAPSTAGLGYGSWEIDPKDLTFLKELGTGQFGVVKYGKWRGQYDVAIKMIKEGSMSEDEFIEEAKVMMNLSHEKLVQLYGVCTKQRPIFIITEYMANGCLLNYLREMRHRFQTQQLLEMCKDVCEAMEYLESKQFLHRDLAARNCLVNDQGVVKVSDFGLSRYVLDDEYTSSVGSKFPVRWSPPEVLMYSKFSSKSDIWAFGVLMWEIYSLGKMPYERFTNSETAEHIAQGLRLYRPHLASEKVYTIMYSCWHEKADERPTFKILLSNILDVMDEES

Going from `C[C@@](O)(c1ccc(-c2nc([C@@H]3C[C@@H]4[C@H](C3)[C@@H]4C(=O)O)n3ccnc(N)c23)cc1)c1cccc(C(F)(F)F)c1` [Example 35, (1R,3r,5S,6s)-3-[8-amino-1-(4-{(1R)-1-hydroxy-1-[3-(trifluoromethyl)phenyl]ethyl}phenyl)imidazo[1,5-a]pyrazin-3-yl]bicyclo[3.1.0]hexane-6-carboxylic acid] to `C[C@@](O)(c1ccc(-c2nc([C@@H]3C[C@@H]4[C@H](C3)[C@H]4C(=O)O)n3ccnc(N)c23)cc1)c1cccc(C(F)(F)F)c1` [Example 36, (1R,3R,5S,6r)-3-[8-amino-1-(4-{(1R)-1-hydroxy-1-[3-(trifluoromethyl)phenyl]ethyl}phenyl)imidazo[1,5-a]pyrazin-3-yl]bicyclo[3.1.0]hexane-6-carboxylic acid], the pIC50 rises from 7.80 to 8.96 (1.16 log units).

First: C[C@@](O)(c1ccc(-c2nc(C3(C(=O)O)CC3)n3ccnc(N)c23)cc1)c1cccc(C(F)(F)F)c1 [Example 7, 1-[8-amino-1-(4-{(1R)-1-hydroxy-1-[3-(trifluoromethyl)phenyl]ethyl}phenyl)imidazo[1,5-a]pyrazin-3-yl]cyclopropanecarboxylic acid]
Second: C[C@@](O)(c1ccc(-c2nc(C3(C(=O)O)CCOCC3)n3ccnc(N)c23)cc1)c1cccc(C(F)(F)F)c1 [Example 10, 4-[8-amino-1-(4-{(1R)-1-hydroxy-1-[3-(trifluoromethyl)phenyl]ethyl}phenyl)imidazo[1,5-a]pyrazin-3-yl]tetrahydro-2H-pyran-4-carboxylic acid]
The pIC50 of the first is 0.32 log units lower: 6.21 for the first, 6.53 for the second.

First: CC1(C(=O)O)CCC(C)(c2nc(-c3ccc([C@@](C)(O)c4cccc(C(F)F)c4)cc3)c3c(N)nccn23)CC1 (stereo partly drawn) [Example 33, 4-[8-amino-1-(4-{(1R)-1-[3-(difluoromethyl)phenyl]-1-hydroxyethyl}phenyl)imidazo[1,5-a]pyrazin-3-yl]-1,4-dimethylcyclohexanecarboxylic acid]
Second: C[C@]1(C(=O)O)CC[C@@](C)(c2nc(-c3ccc([C@@](C)(O)c4cccc(C(F)(F)F)c4)cc3)c3c(N)nccn23)C1 [Example 18, (1S,3R)-3-[8-amino-1-(4-{(1R)-1-hydroxy-1-[3-(trifluoromethyl)phenyl]ethyl}phenyl)imidazo[1,5-a]pyrazin-3-yl]-1,3-dimethylcyclopentanecarboxylic acid]
The pIC50 of the first is 1.19 log units higher: 7.94 for the first, 6.75 for the second. The first is the more potent here.

Compared with `CC(C)[C@@H]1CC[C@H](c2nc(-c3ccc([C@@](C)(O)c4cccc(C(F)(F)F)c4)cc3)c3c(N)nccn23)C[C@@H]1C(=O)O` [Example 23, (1S,2S,5S)-5-[8-amino-1-(4-{(1R)-1-hydroxy-1-[3-(trifluoromethyl)phenyl]ethyl}phenyl)imidazo[1,5-a]pyrazin-3-yl]-2-(1-methylethyl)cyclohexanecarboxylic acid], `CC(C)[C@H]1CC[C@@H](c2nc(-c3ccc([C@@](C)(O)c4cccc(C(F)(F)F)c4)cc3)c3c(N)nccn23)C[C@H]1C(=O)O` [Example 21, (1R,2R,5R)-5-[8-amino-1-(4-{(1R)-1-hydroxy-1-[3-(trifluoromethyl)phenyl]ethyl}phenyl)imidazo[1,5-a]pyrazin-3-yl]-2-(1-methylethyl)cyclohexanecarboxylic acid] is 0.29 log units lower in pIC50: 7.54 for the first, 7.25 for the second.

Going from `CC(C)[C@]1(C(=O)O)CC[C@H](c2nc(-c3ccc([C@@](C)(O)c4cccc(C(F)(F)F)c4)cc3)c3c(N)nccn23)C1` [Example 5, (1S,3S)-3-[8-amino-1-(4-{(1R)-1-hydroxy-1-[3-(trifluoromethyl)phenyl]ethyl}phenyl)imidazo[1,5-a]pyrazin-3-yl]-1-(1-methylethyl)cyclopentanecarboxylic acid] to `CC1(C)[C@@H](c2nc(-c3ccc([C@@](C)(O)c4cccc(C(F)(F)F)c4)cc3)c3c(N)nccn23)CC[C@@]1(C)C(=O)O` [Example 13, (1R,3S)-3-[8-amino-1-(4-{(1R)-1-hydroxy-1-[3-(trifluoromethyl)phenyl]ethyl}phenyl)imidazo[1,5-a]pyrazin-3-yl]-1,2,2-trimethylcyclopentanecarboxylic acid], the pIC50 falls from 7.72 to 7.07 (0.65 log units). The first is the more potent here.

Compared with `CCOc1cc(C(C)(O)c2cccc(C)c2)ccc1-c1nc(C23CCC(C(=O)O)(CC2)CC3)n2ccnc(N)c12` (stereo not drawn) [Example 20, 4-(8-amino-1-{2-ethoxy-4-[1-hydroxy-1-(3-methylphenyl)ethyl]phenyl}imidazo[1,5-a]pyrazin-3-yl)bicyclo[2.2.2]octane-1-carboxylic acid], `C[C@@](O)(c1ccc(-c2nc(C34CCCC(C(=O)O)(CC3)CC4)n3ccnc(N)c23)cc1)c1cccc(C(F)(F)F)c1` [Example 9, 5-[8-amino-1-(4-{(1R)-1-hydroxy-1-[3-(trifluoromethyl)phenyl]ethyl}phenyl)imidazo[1,5-a]pyrazin-3-yl]bicyclo[3.2.2]nonane-1-carboxylic acid] is 1.28 log units higher in pIC50: 6.87 for the first, 8.15 for the second. The second is the more potent here.

First: CCOc1cc([C@@](C)(O)c2cccc(C(F)(F)F)c2)ccc1-c1nc([C@@H]2CC[C@](C)(C(=O)O)C2(C)C)n2ccnc(N)c12 [Example 28, (1S,3R)-3-[8-amino-1-(2-ethoxy-4-{(1S)-1-hydroxy-1-[3-(trifluoromethyl)phenyl]ethyl}phenyl)imidazo[1,5-a]pyrazin-3-yl]-1,2,2-trimethylcyclopentanecarboxylic acid]
Second: CC1(C)[C@H](c2nc(-c3ccc([C@@](C)(O)c4cccc(C(F)(F)F)c4)cc3)c3c(N)nccn23)CC[C@]1(C)C(=O)O [Example 11, (1S,3R)-3-[8-amino-1-(4-{(1R)-1-hydroxy-1-[3-(trifluoromethyl)phenyl]ethyl}phenyl)imidazo[1,5-a]pyrazin-3-yl]-1,2,2-trimethylcyclopentanecarboxylic acid]
The pIC50 of the first is 0.62 log units higher: 8.92 for the first, 8.30 for the second. The first is the more potent here.

First: CC1(C)[C@H](c2nc(-c3ccc([C@@](C)(O)c4cccc(C(F)F)c4)cc3)c3c(N)ncc(F)n23)CC[C@]1(C)C(=O)O [Example 34, (1S,3R)-3-[8-amino-1-(4-{(1R)-1-[3-(difluoromethyl)phenyl]-1-hydroxyethyl}phenyl)-5-fluoroimidazo[1,5-a]pyrazin-3-yl]-1,2,2-trimethylcyclopentanecarboxylic acid]
Second: C[C@@]1(C(=O)O)CC[C@](C)(c2nc(-c3ccc([C@@](C)(O)c4cccc(C(F)(F)F)c4)cc3)c3c(N)nccn23)C1 [Example 17, (1R,3S)-3-[8-amino-1-(4-{(1R)-1-hydroxy-1-[3-(trifluoromethyl)phenyl]ethyl}phenyl)imidazo[1,5-a]pyrazin-3-yl]-1,3-dimethylcyclopentanecarboxylic acid]
The pIC50 of the first is 1.36 log units higher: 8.62 for the first, 7.26 for the second. The first is the more potent here.

Compared with `C[C@@](O)(c1ccc(-c2nc([C@H]3C[C@H]4CC[C@@H](C3)[C@H]4C(=O)O)n3ccnc(N)c23)cc1)c1cccc(C(F)(F)F)c1` [Example 25, (3-endo,8-syn)-3-[8-amino-1-(4-{(1R)-1-hydroxy-1-[3-(trifluoromethyl)phenyl]ethyl}phenyl)imidazo[1,5-a]pyrazin-3-yl]bicyclo[3.2.1]octane-8-carboxylic acid], `C[C@@](O)(c1ccc(-c2nc(C34CCC(C(=O)O)(CC3)C3CC34)n3ccnc(N)c23)cc1)c1cccc(C(F)(F)F)c1` (stereo partly drawn) [Example 22, 5-[8-amino-1-(4-{(1R)-1-hydroxy-1-[3-(trifluoromethyl)phenyl]ethyl}phenyl)imidazo[1,5-a]pyrazin-3-yl]tricyclo[3.2.2.0~2,4~]nonane-1-carboxylic acid] is 0.81 log units higher in pIC50: 7.40 for the first, 8.21 for the second. The second is the more potent here.

Compared with `C[C@@](O)(c1ccc(-c2nc(C34CCC(C(=O)O)(CC3=O)C(=O)C4)n3ccnc(N)c23)cc1)c1cccc(C(F)(F)F)c1` (stereo partly drawn) [Example 6, 4-[8-amino-1-(4-{(1R)-1-hydroxy-1-[3-(trifluoromethyl)phenyl]ethyl}phenyl)imidazo[1,5-a]pyrazin-3-yl]-2,5-dioxobicyclo[2.2.2]octane-1-carboxylic acid], `C[C@@](O)(c1ccc(-c2nc(C34CCC(C(=O)O)(CC3)C4)n3ccnc(N)c23)cc1)c1cccc(C(F)(F)F)c1` [Example 8, 4-[8-amino-1-(4-{(1R)-1-hydroxy-1-[3-(trifluoromethyl)phenyl]ethyl}phenyl)imidazo[1,5-a]pyrazin-3-yl]bicyclo[2.2.1]heptane-1-carboxylic acid] is 1.68 log units higher in pIC50: 7.28 for the first, 8.96 for the second.

`CCOc1cc(C(C)(O)c2cccc(C)c2)ccc1-c1nc(C23CCC(C(=O)O)(CC2)CC3)n2ccnc(N)c12` (stereo not drawn) [Example 19, 4-(8-amino-1-{2-ethoxy-4-[1-hydroxy-1-(3-methylphenyl)ethyl]phenyl}imidazo[1,5-a]pyrazin-3-yl)bicyclo[2.2.2]octane-1-carboxylic acid] gave a pIC50 of 8.39.
